Results as given in US5147652A, “Autobiotics and their use in eliminating nonself cells in vivo” (priority 1990, dated 1992).

Columns and labels:
Candida albicans [1] = assay: Effect on proliferation of Candida albicans, disk on agar surface (A); type: cell-based
Experimental: Stock solutions of the following test compounds were dissolved in physiological saline. However DOV was dissolved in water.
C. albicans isolated from clinical specimens were density grown in SubbaRow's broth at 35 C. A loopful of yeast suspension was evenly spread on the surface of Muller-Hilton agar plates (7cm diameter) with a sterile cotton applicator and incubated for 12 hours. The test compounds were placed on the surface of the sensidisks (Whatmann No. 17 paper, 6mm diameter) in a volume of 5, 10, 20, and 50 μliter of stock solutions and made up a final volume of 50 μliter with saline. The plates then were placed and kept at 37 C for 24 hours (*) and 48 hours (**) when the diameters of the inhibitory rings were recorded. Photographs were also taken of plates.

Candida albicans [2] = settings: cited from earlier work
[3] = test system: blood coagulation (citrated human blood plasma); assay: Blood coagulation (i), ketoaldehyde kept 1-2 seconds before plasma added; type: biochemical; settings: for d % (clotting activity) / coagulation time / clot: 1-2 seconds contact; for d % (clotting activity): control 22; for coagulation time: control 24; for clot: control hard; for anti-coagulant effectiveness: summary of Example 9
Experimental: (§1) 200 microliter thromboplastin (Ortho) was mixed with 10 microliter ketoaldehyde (KA) stock solution. Then 100 microliter citrated human blood plasma was added and the clot formation time (in seconds) was measured on a Fibrionometer. The effect of the ketoaldehyde on coagulation time was evaluated by comparing the clotting time of the KA treated plasma with the untreated control. The result (d%) was read from a special chart expressing the clotting activity.
(§2) All measurements were run in triplicates. The assay was run at 37 C (waterbath) in special tubes and all solutions were prewarmed.
(i) The plasminogen and ketoaldehyde were kept for
1-2 seconds before the blood plasma was added.

[4] = test system: blood coagulation (normal plasma); assay: Blood coagulation (ii)(b), normal plasma; type: biochemical, human
Experimental: as §1, §2
(ii) The plasminogen and KA were incubated for
varying time before the blood plasma was added.
(b) with normal plasma: clotting time = 11. 7 sec

C. albicans = assay: Inhibition of C. albicans, yeast mixed in agar (B); type: cell-based; settings: 30 μl test, 24 hrs incubation; mean of twenty assays
Experimental: Stock cultured C. albicans is used. The yeast isolated from clinical specimens was stock cultured (subcultured) on semisolid trypsoy agar plates. […] Thus, from the subculture(s), transfers were made every 48 hrs into SRB to keep the experimental strain available for assays. From the 24-48 hrs SRB cultures a loopful of turbid solutions was transferred and spread on either (a) trypsoy agar plates or (b) EBM agar plates which were fortified with horse and calf serum and incubated at 36 C for 24-48 hrs. […] Plate (a) was selected for growth inhibition assay(s) with ketoaldehydes.
One milliliter of SRB culture (24-48 hrs growth) was mixed with 10 ml trypsoy agar, warmed to 38 C and rapidly poured into sterile Petri dishes (7cm), spread evenly and allowed to solidify. The selected test compounds (in 30 μl total volume, as above) were placed in sensidisks (6mm dia, Whatman #17) on the infected agar surface. The plates were incubated for 24 hrs at 37 C. The extent of inhibition, clear zones around the sensi disks, were measured and recorded. In some cases contact photorecords were also made with the plates. (The dark zones on the photos are the inhibition (no growth) areas of C. albicans.
These assays were aimed at finding the variations of inhibition due to (i) the variable amount of yeast in (ii) a three dimensional area of the plates. Each result is the statistical mean of twenty assays on different batches of C. albicans.

Penicillum notatum [5] = assay: Inhibition of proliferation of molds, disk assay; type: cell-based; parameters: unit not given here; settings: 40 hrs
Experimental: (§3) (1) Stock solutions in 26% 2 popanediol:
(§4) (3) Assay: The microorganisms were grown in Saburand's dextrose agar (Scott) at 35 C for stock cultures. For assay the spores were plated on Mueller-Hilton agar plates (7cm dia). The test compounds were applied to the plates on sensi disks (6 mm dia, Whatmann #17 paper) in volumes of 10, 20, 30, 40 microliter made up to 40 plating volume of microliter with the solvent. The plates were incubated at room temperature and in the dark for 40 hrs. The diameter of the inhibition ring around the sensi disks were measured.

Aspergillus niger = assay: Inhibition of proliferation of molds, disk assay; type: cell-based; parameters: unit not given here; settings: 40 hrs
Experimental: as §3, §4

Penicillum notatum [6] = assay: Inhibition of proliferation of molds, disk assay; type: cell-based; settings: 8 days; for persistence of inhibition rings: highest concentration; for spore formation / mycelium development in second ring: penicillin plate
[7] = 10x diluted, incubation time 10 seconds
[8] = 20x diluted, incubation time 30 seconds

SMILES	inhibition diameters (Candida albicans [1]; 10 μliter, 24 hours (*))	inhibition diameters (Candida albicans [1]; 20 μliter, 24 hours (*))	inhibition diameters (Candida albicans [1]; 50 μliter, 24 hours (*))	d % (clotting activity) [3]	coagulation time [3]	clot [3]	inhibition diameters (Candida albicans [1]; 20 μliter, 48 hours (**))	inhibition diameters (Candida albicans [1]; 50 μliter, 48 hours (**))	inhibition diameters (C. albicans)	diameter of inhibition ring (Penicillum notatum [5]; 10 microliter)	diameter of inhibition ring (Penicillum notatum [5]; 20 microliter)	diameter of inhibition ring (Penicillum notatum [5]; 30 microliter)	diameter of inhibition ring (Penicillum notatum [5]; 40 microliter)	diameter of inhibition ring (Aspergillus niger; 10 microliter)	diameter of inhibition ring (Aspergillus niger; 20 microliter)	diameter of inhibition ring (Aspergillus niger; 30 microliter)	diameter of inhibition ring (Aspergillus niger; 40 microliter)	anti-coagulant effectiveness [3]	clotting time [4, 7]	clotting time ([4]; incubation time 15 seconds)	other results
Nc1nc(=O)[nH]cc1F [5FC, 5 fluorocytosine, reference compound]	45 mm	50 mm	55 mm	–	–	–	–	–	–	–	–	–	–	–	–	–	–	–	–	–	inhibition diameters (Candida albicans [1]; 5 μliter, 24 hours (*)): 33 mm; duration of action against Candida (Candida albicans [2]): shortlived action; toxicity to the host (Candida albicans [2]): low toxicity to the host
C[C@@H]1[C@H](O)[C@@H](C)/C=C/C=C/C=C/C=C/C=C/C=C/C=C/[C@H](O[C@@H]2O[C@H](C)[C@@H](O)[C@H](N)[C@@H]2O)C[C@@H]2O[C@](O)(C[C@@H](O)C[C@@H](O)[C@H](O)CC[C@@H](O)C[C@@H](O)CC(=O)O[C@H]1C)C[C@H](O)[C@H]2C(=O)O [AMP-B, amphotericin-B, reference compound]	–	2 mm	5 mm	–	–	–	–	–	–	–	–	–	–	–	–	–	–	–	–	–	–
CC(=O)CC(=O)C=O [AcMG, 3-acetylmethylglyoxal]	18 mm	31 mm	34 mm	28%	21.5 s	hard	24 mm	30 mm	25.3 mm	–	–	–	–	–	–	–	–	–	–	–	inhibition diameters (Candida albicans [1]; 10 μliter, 48 hours (**)): 11 mm; clotting time ([4]; incubation time 120 seconds): 13.9 s; d% ([4]; incubation time 120 seconds): 78%
O=CC(=O)CCl [CMG, chloromethylglyoxal]	7 mm	21 mm	33 mm	infinite	> 200 s	no	10 mm	31 mm	26.6 mm	8	10	12	14	8	11	17	22	most effective anti-coagulants	13.5 s	19.4 s	d% [4, 7]: 37%; d% ([4]; incubation time 15 seconds): 33%; clotting time ([4]; incubation time 100 seconds): > 178.0 s; persistence of inhibition rings (Penicillum notatum [6]): remained unchanged; spore formation / mycelium development in second ring (Penicillum notatum [6]): spore formation in this area was inhibited while mycelium development was not
O=CC(=O)C(Cl)Cl [DCMG, 3,3-dichloromethylglyoxal]	8 mm	20 mm	32 mm	infinite	> 200 s	no	17 mm	29 mm	23.0 mm	8	10	13	16	10	12	14	15	most effective anti-coagulants	12.9 s	> 170.0 s	clotting time [4, 8]: 20.0 s; d% [4, 8]: 14.7%; persistence of inhibition rings (Penicillum notatum [6]): remained unchanged; spore formation / mycelium development in second ring (Penicillum notatum [6]): spore formation in this area was inhibited while mycelium development was not
